Structures can show the parent of a compound that is named as a salt.
Experiments:
[1] = molecular target: T1, JAK2 tyrosine kinase (Homo sapiens, UniProt O60674); experiment: Test 1: inhibitory activity to JAK2 tyrosine kinase (ELISA); type: biochemical; conditions: 25 μM ATP in substrate solution, 30° C. for 1 hour, n=2
T1 construct: purchased Carnabioscience Co
Method in brief: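 Human JAK2 (diluted to 0.75 nM before addition) phosphorylated a biotinylated peptide on streptavidin plates for 1 h at 30 °C. The substrate mix held 625 nM peptide, 25 μM ATP and 25 mM MgCl2 in 15 mM Tris pH 7.5, 0.01% Tween-20 and 1 mM DTT. Phosphotyrosine was detected by HRP antibody/TMB at 450 nm, and IC50 was obtained by non-linear regression; duplicates were run.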

[2] = molecular target: T2, JAK3 tyrosine kinase (Homo sapiens, UniProt P52333); experiment: Test 1: inhibitory activity to JAK3 tyrosine kinase (ELISA); type: biochemical; conditions: 25 μM ATP in substrate solution, 30° C. for 1 hour, n=2
T2 construct: purchased Carnabioscience Co
T2 sequence (P52333 1-1124): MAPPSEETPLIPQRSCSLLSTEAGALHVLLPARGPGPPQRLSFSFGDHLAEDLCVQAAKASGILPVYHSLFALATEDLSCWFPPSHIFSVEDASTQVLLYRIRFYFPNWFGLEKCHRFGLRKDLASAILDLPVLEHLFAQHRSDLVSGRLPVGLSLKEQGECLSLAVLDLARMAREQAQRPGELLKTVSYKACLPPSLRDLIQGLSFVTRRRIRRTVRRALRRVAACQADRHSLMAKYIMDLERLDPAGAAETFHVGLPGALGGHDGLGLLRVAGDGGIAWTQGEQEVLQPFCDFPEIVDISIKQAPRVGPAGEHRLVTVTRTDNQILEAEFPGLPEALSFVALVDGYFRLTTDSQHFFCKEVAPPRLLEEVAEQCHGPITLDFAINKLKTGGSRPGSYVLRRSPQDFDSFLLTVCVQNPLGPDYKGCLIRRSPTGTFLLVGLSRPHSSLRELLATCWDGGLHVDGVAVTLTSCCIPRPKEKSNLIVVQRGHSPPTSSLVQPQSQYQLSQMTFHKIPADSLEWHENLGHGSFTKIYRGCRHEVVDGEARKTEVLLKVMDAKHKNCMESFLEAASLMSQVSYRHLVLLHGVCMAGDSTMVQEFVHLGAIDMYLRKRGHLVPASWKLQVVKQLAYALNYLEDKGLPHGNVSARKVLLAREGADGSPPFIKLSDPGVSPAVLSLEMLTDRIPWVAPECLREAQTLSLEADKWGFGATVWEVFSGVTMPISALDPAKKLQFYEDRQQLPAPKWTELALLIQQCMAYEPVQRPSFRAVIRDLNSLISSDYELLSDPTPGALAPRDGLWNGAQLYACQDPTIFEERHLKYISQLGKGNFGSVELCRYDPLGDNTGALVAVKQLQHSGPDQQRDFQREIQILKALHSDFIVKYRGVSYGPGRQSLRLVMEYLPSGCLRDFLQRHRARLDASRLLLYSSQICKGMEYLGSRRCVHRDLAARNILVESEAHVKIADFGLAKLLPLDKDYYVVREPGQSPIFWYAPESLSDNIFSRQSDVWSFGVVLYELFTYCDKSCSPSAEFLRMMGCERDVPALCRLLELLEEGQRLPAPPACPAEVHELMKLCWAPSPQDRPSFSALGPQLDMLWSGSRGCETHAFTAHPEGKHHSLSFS
Method in brief: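 ELISA of JAK3 kinase activity with absorbance read at 450 nm. Compounds were tested from DMSO dilution series at 100-fold the measurement concentrations (1000–0.01 μM), diluted up to 20 times in assay buffer, against a DMSO negative control. IC50 was estimated by non-linear regression of absorbance.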

T1 sequence (O60674 whole entry): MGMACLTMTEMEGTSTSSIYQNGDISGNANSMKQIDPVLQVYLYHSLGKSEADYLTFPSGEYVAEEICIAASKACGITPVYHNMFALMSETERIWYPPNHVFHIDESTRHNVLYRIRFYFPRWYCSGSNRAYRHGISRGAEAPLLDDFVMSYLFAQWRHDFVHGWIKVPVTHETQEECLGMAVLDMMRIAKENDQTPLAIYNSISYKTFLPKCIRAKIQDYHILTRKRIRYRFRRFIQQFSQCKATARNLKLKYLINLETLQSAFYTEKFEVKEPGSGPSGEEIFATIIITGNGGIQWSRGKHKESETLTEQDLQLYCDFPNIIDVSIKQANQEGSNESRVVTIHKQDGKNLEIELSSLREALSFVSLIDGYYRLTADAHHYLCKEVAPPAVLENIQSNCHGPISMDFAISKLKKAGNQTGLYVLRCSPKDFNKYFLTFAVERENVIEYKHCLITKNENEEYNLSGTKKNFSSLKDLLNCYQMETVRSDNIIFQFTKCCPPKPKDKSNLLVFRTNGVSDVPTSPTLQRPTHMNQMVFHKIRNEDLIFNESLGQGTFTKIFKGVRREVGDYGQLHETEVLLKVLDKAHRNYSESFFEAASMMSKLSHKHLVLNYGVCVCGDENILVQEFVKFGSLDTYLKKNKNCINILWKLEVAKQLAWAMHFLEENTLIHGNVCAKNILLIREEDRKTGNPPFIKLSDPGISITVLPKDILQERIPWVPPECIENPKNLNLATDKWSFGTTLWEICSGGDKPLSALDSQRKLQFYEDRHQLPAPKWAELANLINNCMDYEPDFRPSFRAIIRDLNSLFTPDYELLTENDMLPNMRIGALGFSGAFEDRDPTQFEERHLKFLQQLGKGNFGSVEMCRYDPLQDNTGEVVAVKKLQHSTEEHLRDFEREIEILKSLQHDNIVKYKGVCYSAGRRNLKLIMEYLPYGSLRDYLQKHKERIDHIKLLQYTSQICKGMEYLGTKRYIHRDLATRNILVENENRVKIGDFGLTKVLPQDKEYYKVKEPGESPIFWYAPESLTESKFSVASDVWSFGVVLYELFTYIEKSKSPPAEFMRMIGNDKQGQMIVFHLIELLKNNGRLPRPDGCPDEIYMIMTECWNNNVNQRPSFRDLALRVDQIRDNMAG

SMILES | IC50 [1] [nM] | IC50 [2] [nM]
C[C@H](Nc1nc(Nc2cnccn2)cc(N2CCN(S(=O)(=O)c3ccccc3)CC2)n1)c1ccc(F)cc1 [Example 114, (S)—N^2-[1-(4-Fluorophenyl)ethyl]-6-[4-(phenylsulfonyl)piperazin-1-yl]-N^4-(pyrazin-2-yl)pyrimidine-2,4-diamine hydrochloride] | 4.8 | 66
Cc1cnc(CNc2cc(Nc3cnccn3)nc(N[C@@H](C)c3ccc(F)cc3)n2)cn1 [Example 102, (S)—N^2-[1-(4-Fluorophenyl)ethyl]-N^4-[(5-methylpyrazin-2-yl)methyl]-N^6-(pyrazin-2-yl)pyrimidine-2,4,6-triamine hydrochloride] | 2.6 | 140
Cc1cn(-c2cc(Nc3cnccn3)nc(N[C@@H](C)c3ccc(F)cc3)n2)cn1 [Example 118, (S)—N^2-[1-(4-Fluorophenyl)ethyl]-6-(4-methyl-1H-imidazol-1-yl)-N^4-(pyrazin-2-yl)pyrimidine-2,4-diamine hydrochloride] | 1.6 | 290
C[C@H](Nc1nc(Nc2cnccn2)cc(N2CC(O)C2)n1)c1ccc(F)cc1 [Example 72, (S)-1-{2-[1-(4-Fluorophenyl)ethylamino]-6-(pyrazin-2-ylamino)pyrimidin-4-yl}azetidin-3-ol hydrochloride] | 0.96 | 31
C[C@H](Nc1nc(Nc2cnccn2)cc(N2CC(C(=O)N3CCCCC3)C2)n1)c1ccc(F)cc1 [Example 195, (S)-(1-{2-[1-(4-Fluorophenyl)ethylamino]-6-(pyrazin-2-ylamino)pyrimidin-4-yl}azetidin-3-yl)(piperidin-1-yl)methanone] | 1.2 | 50
C[C@H](Nc1nc(NCc2ccco2)cc(Nc2cnccn2)n1)c1ccc(F)cc1 [Example 103, (S)—N^2-[1-(4-Fluorophenyl)ethyl]-N^4-(furan-2-ylmethyl)-N^6-(pyrazin-2-yl)pyrimidine-2,4,6-triamine hydrochloride] | 4.1 | 310
C[C@H](Nc1nc(Nc2cnccn2)cc(-c2cn[nH]c2)n1)c1ccc(F)cc1 [Example 34, (S)—N^2-[1-(4-Fluorophenyl)ethyl]-N^4-(pyrazin-2-yl)-6-(1H-pyrazol-4-yl)pyrimidine-2,4-diamine maleate] | 0.51 | 59
C[C@H](Nc1nc(Nc2cnccn2)cc(-c2cccc(C(N)=O)c2)n1)c1ccc(F)cc1 [Example 91] | 1.4 | 97

Second part, the compound after the results:

IC50 [1] [nM] | IC50 [2] [nM] | SMILES
0.85 | 150 | C[C@H](Nc1cc(C(=O)NCCCO)cc(Nc2cnccn2)n1)c1ccc(F)cc1 [Example 172, (S)-2-[1-(4-Fluorophenyl)ethylamino]-N-(3-hydroxypropyl)-6-(pyrazin-2-ylamino)isonicotinamide]
1.4 | 49 | CCC(=O)Nc1cc(Nc2cnccn2)nc(N[C@@H](C)c2ccc(F)cc2)c1 [Example 216, (S)—N-{2-[1-(4-Fluorophenyl)ethylamino]-6-(pyrazin-2-ylamino)pyridin-4-yl}propionamide]
3.2 | 180 | C[C@H](Nc1cc(NC(N)=O)cc(Nc2cnccn2)n1)c1ccc(F)cc1 [Example 210, (S)-1-[2-[1-(4-Fluorophenyl)ethylamino]-6-(pyrazin-2-ylamino)pyridin-4-yl]urea]
4.9 | 400 | COCc1cc(Nc2cnccn2)nc(N[C@@H](C)c2ccc(F)cc2)c1 [Example 175, (S)—N^2-[1-(4-Fluorophenyl)ethyl]-4-(methoxymethyl)-N^6-(pyrazin-2-yl)pyridine-2,6-diamine]
2.4 | 200 | CC(C)[C@@H](CO)Nc1cc(Nc2cnccn2)nc(N[C@@H](C)c2ccc(F)cc2)n1 [Example 99, (S)-2-{2-[(S)-1-(4-Fluorophenyl)ethylamino]-6-(pyrazin-2-ylamino)pyrimidin-4-ylamino}-3-methylbutan-1-ol hydrochloride]
